Test results: patent US20240400547A1, “2,6-PIPERIDINEDIONE COMPOUND AND APPLICATION THEREOF” (MEDSHINE DISCOVERY INC., priority 2021, published 2024)
pIC50: −log10 of the molar value. Counter-ions that a name gives are not always drawn.

Columns and labels:
SU-DHL-2 = test: Antiproliferative effect in lymphoma cell line SU-DHL-2 (CellTiter-Glo); format: cell-based, human; details: SU-DHL-2, 4 days
Description: Experimental purpose: The experiment aims to evaluate the inhibitory effects of the test compounds on cell proliferation in the lymphoma cell line SU-DHL-2.
The tumor cell lines were cultured in a 37° C., 5% CO2 incubator under the above culture conditions. Regular passage, and cells in logarithmic growth phase were taken for plating.
• (1) Cells were stained with trypan blue and viable cells were counted. • (2) The cell concentration was adjusted to an appropriate concentration.
• (3) 50 μL of cell suspension per well was added to the culture plate as shown in the figure above. • (4) The culture plate was cultured overnight in a 37° C., 5% CO2 incubator with 100% relative humidity.
Compounds were added using the Echo655 instrument. The volume of compound added was 50 nL, with a final DMSO concentration of 0.1%. The culture plate was centrifuged at 1000 rpm for 1 minute, then incubated for 4 days in an incubator at 37° C., 5% CO2, and with 100% relative humidity.
The following steps were performed according to the instructions of Promega CellTiter-Glo luminescent cell viability assay kit (Promega-G7573). • (1) CellTiter-Glo buffer was melted and brought to room temperature. • (2) CellTiter-Glo substrate was brought to room temperature. • (3) CellTiter-Glo working solution was prepared by adding CellTiter-Glo buffer to a vial of CellTiter-Glo substrate to dissolve the substrate; • (4) The mixture was slowly vortexed and shaken to be fully dissolved. • (5) The cell culture plate was taken out and left for 30 minutes to equilibrate to room temperature. • (6) 25 μL of CellTiter-Glo working solution was added per well (equal to half the volume of cell culture medium per well). The cell plate was wrapped in aluminum foil to be protected from light. • (7) The culture plate was shaken on an orbital shaker for 2 minutes to induce cell lysis. • (8) The culture plate was left at room temperature for 10 minutes to stabilize the luminescent signal. • (9) The luminescent signal was detected on a 2104 EnVision plate reader.
The inhibition rate (IR) of the test compound was calculated using the following formula: IR (%)=(1−(RLU compound/RLU blank control)/(RLU vehicle control−RLU blank control)×100%. The inhibition rates of compounds at different concentrations were calculated in Excel, and then GraphPad Prism software was used to plot inhibition curves and calculate relevant parameters, including minimum inhibition rate, maximum inhibition rate, and IC50.

IRAK4 = target: T1, IRAK4 (Homo sapiens, UniProt Q9NWZ3); test: Target protein degradation in K562 IRAK4-HiBiT cells (Nano-Glo HiBiT); format: cell-based; details: 16 to 18 hours
T1 construct: expressed in transfected cells; host or cells: K562 IRAK4-HiBiT cells
T1 sequence (Q9NWZ3 1-460): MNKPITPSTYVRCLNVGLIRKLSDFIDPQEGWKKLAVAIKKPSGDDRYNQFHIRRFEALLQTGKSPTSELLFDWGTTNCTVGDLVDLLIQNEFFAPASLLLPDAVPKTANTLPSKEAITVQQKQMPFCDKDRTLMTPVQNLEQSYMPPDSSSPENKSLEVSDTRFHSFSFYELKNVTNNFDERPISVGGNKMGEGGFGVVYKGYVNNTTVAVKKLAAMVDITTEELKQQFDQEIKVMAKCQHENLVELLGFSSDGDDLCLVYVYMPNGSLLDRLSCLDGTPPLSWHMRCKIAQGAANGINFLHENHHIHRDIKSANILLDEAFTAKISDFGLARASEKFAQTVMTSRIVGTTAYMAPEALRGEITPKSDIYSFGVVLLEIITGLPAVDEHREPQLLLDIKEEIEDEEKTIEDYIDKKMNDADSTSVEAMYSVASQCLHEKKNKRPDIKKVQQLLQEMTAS
Description: Experimental objective: The experiment aims to evaluate the degradation effect of the test compounds on the target protein IRAK4 in K562 IRAK4-HiBiT cells.
• Cells: K562 IRAK4-HiBiT cells • Culture medium: RPMI 1640+10% fetal bovine serum+2 mM glutamine+1 mM sodium pyruvate+penicillin/streptomycin. • Positive control: 1000 nM; negative control: 0.1% DMSO.
• (1). The powder of the compound to be tested was dissolved in DMSO to a storage concentration of 10 mM. A total of 9 μL of the 10 mM of the compound to be tested was manually pipetted into the 1st and 13th columns of the LDV plate using a pipettor; • (2). A volume of 6 μL of DMSO was added to columns 2-12 and 14-24 using a Multidrop Combi; • (3). A 3-fold dilution of the test compounds (3 μL+6 μL) was performed using Bravo, for columns 1-11 and 13-23; • (4). According to the plate layout, 25 nL of compound solution (columns 1-24 of the LDV plate) was transferred to the experimental plate using Echo; • (5) 25 nL of the 1 mM positive control solution was transferred to the assay plate as a 100% degradation control (i.e. LC, HPE), and 25 nL of DMSO was transferred to the assay plate as a 0% control (i.e. HC, ZPE).
• (1) The culture medium was discarded, and the cells were washed once with DPBS, digested with trypsin, counted, and prepared into a cell suspension of […]. • (2) Using the MultiDrop Combi at a medium speed, 25 μL/well of the cell suspension was added to the experimental plate containing the test compounds; • (3) The experimental plate containing cells was returned to the incubator and cultured for 16 to 18 hours at 37° C. and 5% CO2.
• (1). Using the MultiDrop Combi at a high speed, 25 μL/well of the assay reagent (NanoGlo lytic solution+substrate+LgBit protein) was added to the assay plate, followed by shaking for 10 minutes; • (2) The plate was centrifuged at 2000 rpm for 1 minute to remove any bubbles; • (3) Readings were obtained by using an Envision, US Luminescence reader.
To calculate the degradation rate (DR) of the test compounds, the following formula is used: IR (%)=(RLU vehicle control−RLU compound)/(RLU vehicle control−RLU positive control)×100%. The solvent control refers to the blank control. The degradation rates of compounds at different concentrations were calculated in Excel, and then XLFit software was used to plot inhibition curves and calculate relevant parameters, including minimum degradation rate, maximum degradation rate, and DC50.

IKZF1 = target: T2, IKZF1 (Homo sapiens, UniProt Q13422+Q96SW2); test: In Cell Western of IKZF1 protein expression level in MM.1S cells; format: cell-based; details: IKZF1, MM.1S cells, 24 hours
T2 construct: host or cells: MM.1S cells
T2 sequence (Q13422 whole entry): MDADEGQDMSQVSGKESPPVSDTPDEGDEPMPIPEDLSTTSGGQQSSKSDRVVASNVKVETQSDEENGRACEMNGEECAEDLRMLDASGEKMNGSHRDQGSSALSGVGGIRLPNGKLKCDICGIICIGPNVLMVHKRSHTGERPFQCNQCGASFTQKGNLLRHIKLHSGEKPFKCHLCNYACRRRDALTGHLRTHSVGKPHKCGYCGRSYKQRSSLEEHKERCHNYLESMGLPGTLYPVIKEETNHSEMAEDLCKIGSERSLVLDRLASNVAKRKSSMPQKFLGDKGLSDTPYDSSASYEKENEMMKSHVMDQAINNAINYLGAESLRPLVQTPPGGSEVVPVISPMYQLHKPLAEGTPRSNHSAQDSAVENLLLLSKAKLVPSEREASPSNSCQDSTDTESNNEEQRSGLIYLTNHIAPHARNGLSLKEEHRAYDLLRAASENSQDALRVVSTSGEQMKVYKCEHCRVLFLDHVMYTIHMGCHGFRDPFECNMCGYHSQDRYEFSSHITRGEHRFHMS
T2 sequence (Q96SW2 whole entry): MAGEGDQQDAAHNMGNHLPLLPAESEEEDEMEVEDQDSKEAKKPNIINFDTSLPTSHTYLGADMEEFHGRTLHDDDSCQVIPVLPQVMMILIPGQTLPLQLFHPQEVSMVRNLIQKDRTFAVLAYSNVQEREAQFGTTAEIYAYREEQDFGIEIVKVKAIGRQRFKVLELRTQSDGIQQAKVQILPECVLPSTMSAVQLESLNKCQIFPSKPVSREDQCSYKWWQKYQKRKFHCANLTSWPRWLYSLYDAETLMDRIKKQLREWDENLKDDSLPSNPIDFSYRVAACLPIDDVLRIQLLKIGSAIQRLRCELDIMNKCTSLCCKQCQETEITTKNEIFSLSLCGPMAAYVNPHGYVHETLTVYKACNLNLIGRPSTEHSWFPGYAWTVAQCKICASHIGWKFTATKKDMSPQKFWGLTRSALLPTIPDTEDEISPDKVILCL
T2 sequence (Q16531 whole entry partner): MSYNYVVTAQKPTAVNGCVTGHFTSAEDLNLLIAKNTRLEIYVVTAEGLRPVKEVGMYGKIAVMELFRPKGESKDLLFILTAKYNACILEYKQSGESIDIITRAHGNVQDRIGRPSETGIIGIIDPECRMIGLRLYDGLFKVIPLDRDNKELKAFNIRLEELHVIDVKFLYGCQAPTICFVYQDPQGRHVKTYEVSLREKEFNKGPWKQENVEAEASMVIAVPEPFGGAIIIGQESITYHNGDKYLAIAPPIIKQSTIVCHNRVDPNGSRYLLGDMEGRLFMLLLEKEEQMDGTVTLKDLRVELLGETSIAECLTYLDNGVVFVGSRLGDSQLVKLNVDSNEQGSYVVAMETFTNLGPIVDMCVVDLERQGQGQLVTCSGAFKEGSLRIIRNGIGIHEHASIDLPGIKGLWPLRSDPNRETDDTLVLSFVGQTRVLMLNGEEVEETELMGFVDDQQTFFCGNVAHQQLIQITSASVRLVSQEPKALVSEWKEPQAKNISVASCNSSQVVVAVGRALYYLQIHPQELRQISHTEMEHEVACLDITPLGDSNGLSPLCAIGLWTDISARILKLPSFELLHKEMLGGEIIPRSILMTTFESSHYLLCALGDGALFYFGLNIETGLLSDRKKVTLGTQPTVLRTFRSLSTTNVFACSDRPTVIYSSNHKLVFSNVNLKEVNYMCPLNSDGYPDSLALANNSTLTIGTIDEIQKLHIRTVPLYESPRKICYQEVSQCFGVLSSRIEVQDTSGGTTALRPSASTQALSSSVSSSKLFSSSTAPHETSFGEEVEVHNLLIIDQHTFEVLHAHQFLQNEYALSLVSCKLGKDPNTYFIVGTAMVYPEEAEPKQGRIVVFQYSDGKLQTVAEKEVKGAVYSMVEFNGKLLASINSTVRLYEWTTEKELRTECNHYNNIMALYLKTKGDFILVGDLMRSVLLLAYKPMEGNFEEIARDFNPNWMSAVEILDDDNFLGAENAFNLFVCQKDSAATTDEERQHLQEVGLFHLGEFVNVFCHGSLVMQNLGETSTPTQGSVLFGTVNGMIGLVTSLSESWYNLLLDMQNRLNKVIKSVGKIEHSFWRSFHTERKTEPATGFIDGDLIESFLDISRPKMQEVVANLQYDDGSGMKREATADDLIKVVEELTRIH
Description: Experimental objective: The experiment aims to assess the degradation effect of the test compounds on IKZF1 and 1KZF3 proteins in MM.1S cells by evaluating the impact of the test compounds on the expression levels of IKZF1 and IZKZF3 proteins in MM.1S cells.
• Cell lines: MMN.1 S cell (sourced from ATCC; Cat. No CRL-2974) • Negative control: 0.100 DMSO.
• 1) Log phase MM.1 S cells were plated in a 96-well plate at 1.2×10^5 cells per well and cultured overnight; • 2) The next day, compounds were added with a starting concentration of 300 nM, diluted threefold across three replicate wells for 10 concentration gradients (including DMSO), and the cells were incubated for 24 hours in an incubator; • 3) The cells were centrifuged, and the supernatant was carefully removed. 150 μL of 4% paraformaldehyde fixative was added along the wall of the wells, avoiding contact with the bottom cells, and the cells were incubated at room temperature for 20 minutes; • 4) Lysis buffer was prepared by mixing 0.5 mL of 10% Triton X-100 with 49.5 mL of PBS until homogenous; • 5) 200 μL of lysis buffer was added along the well walls, again avoiding the bottom cells, and incubated on a shaker at room temperature for 5 minutes; • 6) The wells were washed four times; • 7) 150 μL of Licor […] Blocking Buffer was added along the well walls, avoiding the bottom cells, and the cells were incubated on a shaker at room temperature for 1.5 hours; • 8) Ikaros (D6N9Y) Rabbit mAb, Aiolos (D1C1E) Rabbit mAb and GAPDH mouse mAb (proteintech, 60004-1-Ig) were diluted at a 1:100 ratio using antibody dilution buffer; • 9) 50 μL of mixed antibody was added to each well with three replicate wells, and the cells were incubated overnight on a shaker at 4° C.; • 10) PBST (PBS with 0.1% Tween 20) was prepared; • 11) The primary antibodies were removed, and 200 μL of PBST was added along the well walls, avoiding the bottom cells, and the cells were incubated on a shaker at room temperature for 5 minutes; • 12) The wells were washed four times; • 13) Secondary antibody dilution buffer was prepared by adding Tween 20 to Licor […] Blocking Buffer to a final concentration of 0.2%; • 14) Fluorescent secondary antibodies were diluted in the dark at a 1:800 ratio. To 400 μL of secondary antibody dilution solution, 0.5 μL of each IRDye 800CW and IRDye 680CW (corresponding to the primary antibodies) was added. • 15) 50 μL of the diluted fluorescent secondary antibodies was added to each well and the cells were incubated on a shaker at room temperature in the dark for 60 minutes; • 16) The secondary antibodies were removed, and 200 μL of PBST was added along the well walls, avoiding the bottom cells, and the cells were incubated on a shaker at room temperature in the dark for 5 minutes; • 17) The wells were washed four times; immediately after washing, the Odyssey Gel Imaging System was used for detection at dual wavelengths of 700 nm and 800 nm.
Using GraphPad Prism 6 software, inhibition rate data was entered to fit the curve and calculate the DC50 value.

pIC50 (SU-DHL-2; Homo sapiens, 96 h)	DC50 (IRAK4) [nM]	Dmax (IRAK4; read-out: Maximum degradation rate) [%]	DC50 (IKZF1) [nM]	Dmax (IKZF1; MM1.S, read-out: Maximum degradation rate Dmax) [%]	Compound	Maximum inhibition rate (SU-DHL-2) [%]
7.19	–	–	–	–	CN(CCCOCCCc1ccc2occ(C3CCC(=O)NC3=O)c2c1)C[C@H]1CC[C@H](n2cc(NC(=O)c3coc(-c4ccnc(NCC5CC5)c4)n3)c(C(F)F)n2)CC1 (stereo partly drawn) [Hydrochloride of WX004]	99.05
–	70.7	93.1	6.02	81.6	CN(CCCOCCCc1ccc2c(ccc3onc(C4CCC(=O)NC4=O)c32)c1)C[C@H]1CC[C@H](n2cc(NC(=O)c3coc(-c4ccnc(NCC5CC5)c4)n3)c(C(F)F)n2)CC1 (stereo partly drawn) [Hydrochloride of WX016]	–
